Laboratory results: patent publication US20230202973A1, “BARNESIN A, DERIVATIVES AND USES THEREOF” (Leibniz-Institut Für Naturstoff-Forschung Und …, priority 2018, published 2023)

Type: in vitro ADME
Conditions: 0 min, pH 7.4
Protocol: The liver is the main organ of drug metabolism in the body. Subcellular fractions such as liver microsomes are useful in vitro models of hepatic clearance as they contain many of the drug metabolising enzymes found in the liver. Liver microsomes are subcellular fractions which contain membrane bound drug metabolising enzymes. The microsomes are incubated with the test compound at 37° C. in the presence of the co-factors, which initiates the reaction. The reaction is terminated by the addition of organic solvents containing internal standard. Following centrifugation, the supernatant is analysed on the LC-MS/MS. The disappearance of test compound is monitored over certain time period. Here, a microsome stability assay was used to investigate the metabolism of the compounds; using this assay it is possible to measure in vitro the intrinsic clearance or to identify metabolites formed. For a standard assay the following solutions were used: 360 μL Microsomal solution (1.1 mg/mL in phosphate buffer), 360 μL NADP-regeneration mix (containing NADP (10 mM), MgCl2 (50 mM), glucose-6-phosphate (50 mM), glucose-6-phosphate dehydrogenase (50 U/ml)) and 40 μL phosphate buffer (100 mM, pH 7.4). […] 5 uL of each sample was injected to a UPLC/HRMS system and the peak areas of the extracted ion chromatograms were determined

- Area rel. [%], PC: 100.0%
SMILES: O=C(O)Cc1ccccc1Nc1c(Cl)cccc1Cl [Diclo, Diclofenac]
